The text below walks through data of patent US6358981B1, “Sulphonamide derivatives” (Eli Lilly and Company, priority 1998, dated 2002).

For one series, the target named is T1, human GluR4B receptor (Homo sapiens, UniProt P48058).
T1 construct: expressed in transfected cells
The series is described as follows: potentiation of agonist-induced excitability of human GluR4B receptor expressed in HEK 293 cells. Type of series: cell-based. The text has this:
The ability of compounds of formula I to potentiate glutamate receptor-mediated response may be determined using fluorescent calcium indicator dyes (Molecular Probes, Eugene, Oreg., Fluo-3) and by measuring glutamate-evoked efflux of calcium into GluR4 transfected HEK293 cells, as described in more detail below.
In one test, 96 well plates containing confluent monolayers of HEK cells stably expressing human GluR4B (obtained as described in European Patent Application Publication Number EP-A1-583917) are prepared. The tissue culture medium in the wells is then discarded, and the wells are each washed once with 200 μl of buffer (glucose, 10 mM, sodium chloride, 138 mM, magnesium chloride, 1 mM, potassium chloride, 5 mM, calcium chloride, 5 mM, N-[2-hydroxyethyl]-piperazine-N-[2-ethanesulfonic acid], 10 mM, to pH 7.1 to 7.3). […]
Each test is then performed as follows. […] A second fluorescent reading is taken after 5 minutes incubation. 15 μl of 400 μM glutamate solution is then added to each well (final glutamate concentration 100 μM), and a third reading is taken. The activities of test compounds and cyclothiazide solutions are determined by subtracting the second from the third reading (fluorescence due to addition of glutamate in the presence or absence of test compound or cyclothiazide) and are expressed relative to enhance fluorescence produced by 100 μM cyclothiazide.

The structures appear in SMILES notation.

T1 sequence (P48058 21-902): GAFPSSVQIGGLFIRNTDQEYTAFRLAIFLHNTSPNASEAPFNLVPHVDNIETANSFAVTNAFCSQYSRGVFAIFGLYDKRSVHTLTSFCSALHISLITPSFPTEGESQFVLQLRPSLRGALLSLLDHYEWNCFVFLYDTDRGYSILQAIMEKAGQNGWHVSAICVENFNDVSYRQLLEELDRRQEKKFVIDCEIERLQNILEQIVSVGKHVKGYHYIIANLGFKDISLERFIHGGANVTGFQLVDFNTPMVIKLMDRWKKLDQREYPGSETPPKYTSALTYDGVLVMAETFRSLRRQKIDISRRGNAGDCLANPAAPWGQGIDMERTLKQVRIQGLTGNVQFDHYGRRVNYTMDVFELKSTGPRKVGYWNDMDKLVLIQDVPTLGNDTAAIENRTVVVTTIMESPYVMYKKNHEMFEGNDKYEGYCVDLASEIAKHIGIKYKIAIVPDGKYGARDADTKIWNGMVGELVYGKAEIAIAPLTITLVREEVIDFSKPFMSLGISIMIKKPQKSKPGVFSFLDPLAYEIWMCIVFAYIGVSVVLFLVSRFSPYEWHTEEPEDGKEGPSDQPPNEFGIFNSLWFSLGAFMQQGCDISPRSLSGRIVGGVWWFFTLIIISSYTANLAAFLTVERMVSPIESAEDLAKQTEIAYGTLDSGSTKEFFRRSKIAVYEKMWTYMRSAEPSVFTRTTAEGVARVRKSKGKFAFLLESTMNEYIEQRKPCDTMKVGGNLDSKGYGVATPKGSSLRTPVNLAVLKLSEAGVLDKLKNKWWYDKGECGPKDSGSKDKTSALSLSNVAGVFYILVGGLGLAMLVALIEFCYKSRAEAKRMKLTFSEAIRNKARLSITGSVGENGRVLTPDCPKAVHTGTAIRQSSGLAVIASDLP

Take `CC(C)S(=O)(=O)NCC(F)c1ccc(-c2ccccc2)cc1` (centres unmarked): the melting point is 89 to 91 °C.
As for `NS(=O)(=O)c1cc2c(cc1Cl)NC(C1CC3C=CC1C3)NS2(=O)=O` (centres unmarked) [cyclothiazide], the “potentiation of agonist-induced excitability” value on human GluR4B receptor was “potentiate agonist-induced excitability”.
